Several values for one entry are separate records, joined by “and”; a condition that tells them apart may be missing. Equal entries are not always repeated. Toxic doses and inconclusive results are not listed. Rule as the data show it: active = T/C of 150% or more; inactive = T/C below 125%.
Test system: L1210 leukemia ip in BDF1 mice, survival T/C
Assay: NCI In Vivo Anticancer Drug Screen. Data for tumor model L1210 Leukemia (intraperitoneal) in B6D2F1 (BDF1) mice
Details: higher = longer survival
Procedure, shortened: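 Survival endpoint. Drug-treated group vs vehicle group, expressed as T divided by C. Tumor passaged by transplantation.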

Measured: T/C

CO[C@@]12[C@H](COC(N)=O)C3=C(C(=O)C(C)=C(N)C3=O)N1C[C@@H]1N[C@@H]12
inactive: endpoint: mean survival time, dose: 0.1 mg/kg/injection, schedule: Q01DX Z (ip), vehicle: carboxymethylcellulose (CMC) 110 % of control | endpoint: mean survival time, dose: 0.18 mg/kg/injection, schedule: Q04DX002 (ip), vehicle: saline 106 % of control and 110 % of control | endpoint: mean survival time, dose: 0.2 mg/kg/injection, schedule: Q01DX Z (ip), vehicle: carboxymethylcellulose (CMC) 110 % of control | endpoint: mean survival time, dose: 0.2 mg/kg/injection, schedule: Q02DX010 (ip), vehicle: carboxymethylcellulose (CMC) 118 % of control | endpoint: mean survival time, dose: 0.25 mg/kg/injection, schedule: Q01DX Z (ip), vehicle: carboxymethylcellulose (CMC) 107 % of control | endpoint: mean survival time, dose: 0.32 mg/kg/injection, schedule: Q01DX Z (ip), vehicle: carboxymethylcellulose (CMC) 98 % of control | endpoint: mean survival time, dose: 0.35 mg/kg/injection, schedule: Q01DX009 (ip), vehicle: saline 120 % of control | endpoint: mean survival time, dose: 0.35 mg/kg/injection, schedule: Q04DX002 (ip), vehicle: saline 103 % of control | endpoint: mean survival time, dose: 0.4 mg/kg/injection, schedule: Q01DX Z (ip), vehicle: carboxymethylcellulose (CMC) 114 % of control and 116 % of control | endpoint: mean survival time, dose: 0.4 mg/kg/injection, schedule: Q02DX010 (ip), vehicle: carboxymethylcellulose (CMC) 111 % of control and 90 % of control | endpoint: mean survival time, dose: 0.5 mg/kg/injection, schedule: Q01DX Z (ip), vehicle: carboxymethylcellulose (CMC) 107 % of control and 122 % of control | endpoint: mean survival time, dose: 0.53 mg/kg/injection, schedule: Q01DX Z (ip), vehicle: carboxymethylcellulose (CMC) 114 % of control | endpoint: mean survival time, dose: 0.7 mg/kg/injection, schedule: Q01DX001 (ip), vehicle: saline 109 % of control | endpoint: mean survival time, dose: 0.7 mg/kg/injection, schedule: Q04DX002 (ip), vehicle: saline 103 % of control and 111 % of control | endpoint: mean survival time, dose: 0.75 mg/kg/injection, schedule: Q01DX001 (ip), vehicle: water 118 % of control | endpoint: mean survival time, dose: 0.8 mg/kg/injection, schedule: Q02DX010 (ip), vehicle: carboxymethylcellulose (CMC) 104 % of control and 121 % of control | endpoint: mean survival time, dose: 0.86 mg/kg/injection, schedule: Q02DX010 (ip), vehicle: carboxymethylcellulose (CMC) 117 % of control | endpoint: mean survival time, dose: 0.96 mg/kg/injection, schedule: Q01DX001 (ip), vehicle: acetone 114 % of control | endpoint: mean survival time, dose: 1.0 mg/kg/injection, schedule: Q01DX001 (ip), vehicle: saline 111 % of control | endpoint: mean survival time, dose: 1.4 mg/kg/injection, schedule: Q01DX001 (ip), vehicle: acetone 111 % of control | endpoint: mean survival time, dose: 1.5 mg/kg/injection, schedule: Q01DX001 (ip), vehicle: saline 115 % of control | endpoint: mean survival time, dose: 1.5 mg/kg/injection, schedule: Q01DX001 (ip), vehicle: water 117 % of control | endpoint: mean survival time, dose: 1.5 mg/kg/injection, schedule: Q07DX003 (ip), vehicle: saline 123 % of control | endpoint: mean survival time, dose: 1.5 mg/kg/injection, schedule: Q## X003 (ip), vehicle: saline 118 % of control | endpoint: mean survival time, dose: 1.6 mg/kg/injection, schedule: Q01DX001 (ip), vehicle: saline 117 % of control | endpoint: mean survival time, dose: 1.9 mg/kg/injection, schedule: Q01DX009 (ip), vehicle: saline 97 % of control | endpoint: mean survival time, dose: 2.0 mg/kg/injection, schedule: Q01DX Z (ip), vehicle: carboxymethylcellulose (CMC) 106 % of control | endpoint: mean survival time, dose: 2.2 mg/kg/injection, schedule: Q01DX001 (ip), vehicle: saline 108 % of control | endpoint: mean survival time, dose: 2.8 mg/kg/injection, schedule: Q01DX009 (ip), vehicle: saline 93 % of control | endpoint: mean survival time, dose: 3.0 mg/kg/injection, schedule: Q01DX001 (ip), vehicle: saline 123 % of control | endpoint: mean survival time, dose: 3.0 mg/kg/injection, schedule: Q02DX010 (ip), vehicle: other 115 % of control and 118 % of control | endpoint: mean survival time, dose: 3.3 mg/kg/injection, schedule: Q01DX001 (ip), vehicle: saline 116 % of control | endpoint: mean survival time, dose: 4.5 mg/kg/injection, schedule: Q02DX010 (ip), vehicle: other 86 % of control and 88 % of control | endpoint: mean survival time, dose: 5.0 mg/kg/injection, schedule: Q01DX001 (ip), vehicle: saline 118 % of control | endpoint: mean survival time, dose: 5.0 mg/kg/injection, schedule: Q01DX015 (ip), vehicle: saline 89 % of control | endpoint: mean survival time, dose: 6.7 mg/kg/injection, schedule: Q02DX010 (ip), vehicle: carboxymethylcellulose (CMC) 84 % of control | endpoint: mean survival time, dose: 7.5 mg/kg/injection, schedule: Q01DX001 (ip), vehicle: saline 123 % of control | endpoint: mean survival time, dose: 12.0 mg/kg/injection, schedule: Q## X003 (ip), vehicle: saline 100 % of control | endpoint: mean survival time, dose: 45.0 micrograms/kg/injection, schedule: Q01DX009 (ip), vehicle: saline 99 % of control and 117 % of control | endpoint: mean survival time, dose: 90.0 micrograms/kg/injection, schedule: Q01DX009 (ip), vehicle: saline 106 % of control and 120 % of control | endpoint: mean survival time, dose: 180.0 micrograms/kg/injection, schedule: Q01DX009 (ip), vehicle: saline 104 % of control and 120 % of control | endpoint: mean survival time, dose: 350.0 micrograms/kg/injection, schedule: Q01DX009 (ip), vehicle: saline 121 % of control | endpoint: median survival time, dose: 1.5 mg/kg/injection, schedule: Q01DX001 (ip), vehicle: saline 100 % of control | endpoint: median survival time, dose: 3.0 mg/kg/injection, schedule: Q01DX001 (ip), vehicle: saline 109 % of control | endpoint: median survival time, dose: 6.0 mg/kg/injection, schedule: Q01DX001 (ip), vehicle: saline 109 % of control | endpoint: median survival time, dose: 12.0 mg/kg/injection, schedule: Q01DX001 (ip), vehicle: saline 117 % of control
active: endpoint: mean survival time, dose: 0.9 mg/kg/injection, schedule: Q02DX010 (ip), vehicle: other 157 % of control and 219 % of control | endpoint: mean survival time, dose: 1.0 mg/kg/injection, schedule: Q01DX Z (ip), vehicle: carboxymethylcellulose (CMC) 161 % of control | endpoint: mean survival time, dose: 1.1 mg/kg/injection, schedule: Q01DX009 (ip), vehicle: saline 155 % of control | endpoint: mean survival time, dose: 1.12 mg/kg/injection, schedule: Q01DX015 (ip), vehicle: carboxymethylcellulose (CMC) 171 % of control | endpoint: mean survival time, dose: 1.25 mg/kg/injection, schedule: Q01DX015 (ip), vehicle: saline 162 % of control | endpoint: mean survival time, dose: 1.3 mg/kg/injection, schedule: Q02DX010 (ip), vehicle: other 167 % of control and 207 % of control | endpoint: mean survival time, dose: 1.4 mg/kg/injection, schedule: Q01DX009 (ip), vehicle: saline 154 % of control and 178 % of control | endpoint: mean survival time, dose: 2.0 mg/kg/injection, schedule: Q02DX010 (ip), vehicle: other 180 % of control and 184 % of control | endpoint: mean survival time, dose: 2.12 mg/kg/injection, schedule: Q02DX010 (ip), vehicle: carboxymethylcellulose (CMC) 158 % of control | endpoint: mean survival time, dose: 2.5 mg/kg/injection, schedule: Q01DX015 (ip), vehicle: saline 154 % of control | endpoint: mean survival time, dose: 3.0 mg/kg/injection, schedule: Q## X003 (ip), vehicle: saline 152 % of control | endpoint: mean survival time, dose: 3.2 mg/kg/injection, schedule: Q02DX010 (ip), vehicle: carboxymethylcellulose (CMC) 184 % of control | endpoint: mean survival time, dose: 6.0 mg/kg/injection, schedule: Q01DX001 (ip), vehicle: saline 196 % of control | endpoint: mean survival time, dose: 6.0 mg/kg/injection, schedule: Q01DX001 (ip), vehicle: water 174 % of control | endpoint: mean survival time, dose: 10.6 mg/kg/injection, schedule: Q04DX002 (ip), vehicle: saline 171 % of control | endpoint: mean survival time, dose: 11.0 mg/kg/injection, schedule: Q01DX001 (ip), vehicle: acetone 193 % of control | endpoint: mean survival time, dose: 1400.0 micrograms/kg/injection, schedule: Q01DX009 (ip), vehicle: saline 153 % of control

From PubChem BioAssay AID248 (DTP/NCI, 2004)
